Measurements as given in patent US20180066070A1, “ACETYLATED PCSK9” (UNIVERSITAT ZURICH, priority 2015, published 2018).
One block for each compound: values may come before it.

Legend:
SIRT1 [1] = biological target: T1, SIRT1 (Mus musculus, UniProt Q923E4); conditions: ApoE-/- mice; cited from earlier work
T1 construct: host or cells: ApoE-/- mice (endogenous protein of the animal)
T1 sequence (Q923E4 1-737): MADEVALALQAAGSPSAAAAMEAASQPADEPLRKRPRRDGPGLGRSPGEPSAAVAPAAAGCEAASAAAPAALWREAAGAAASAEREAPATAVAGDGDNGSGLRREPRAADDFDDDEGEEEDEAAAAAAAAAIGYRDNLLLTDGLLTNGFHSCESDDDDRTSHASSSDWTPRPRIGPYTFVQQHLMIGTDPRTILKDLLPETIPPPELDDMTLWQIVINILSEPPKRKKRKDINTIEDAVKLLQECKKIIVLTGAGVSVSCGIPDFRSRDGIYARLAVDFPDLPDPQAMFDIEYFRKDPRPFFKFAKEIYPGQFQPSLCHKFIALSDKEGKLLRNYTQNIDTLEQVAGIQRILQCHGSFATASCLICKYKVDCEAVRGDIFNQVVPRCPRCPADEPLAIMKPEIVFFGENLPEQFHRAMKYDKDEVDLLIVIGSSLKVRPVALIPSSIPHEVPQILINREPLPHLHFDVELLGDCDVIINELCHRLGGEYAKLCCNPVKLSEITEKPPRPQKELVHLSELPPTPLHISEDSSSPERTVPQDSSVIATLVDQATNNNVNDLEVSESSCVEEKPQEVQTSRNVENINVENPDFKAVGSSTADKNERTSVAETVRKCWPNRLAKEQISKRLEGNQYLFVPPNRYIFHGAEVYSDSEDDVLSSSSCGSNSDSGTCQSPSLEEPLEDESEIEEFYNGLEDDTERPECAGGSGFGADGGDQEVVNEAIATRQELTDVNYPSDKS

RAW 264.7 macrophages = assay: Activity of acetylated vs deacetylated recombinant PCSK9 on RAW 264.7 macrophages (western blot for LDLR, PCSK9); assay type: cell-based, murine; conditions: recombinant PCSK9 pretreated with pCAF and acetyl-CoA vs SIRT1 and NAD+, 15 mins (FIG. 7)
Protocol: Recombinant PCSK9 pretreated with SIRT1 and NAD+ or pCAF and acetyl-CoA were added on RAW 264.7 macrophages for 15 mins and lysed, separated by SDS-PAGE and blotted for LDLR, PCSK9 and b-actin. Representative bar graphs of LDLR, PCSK9 normalized to b-actin and PCSK9 expression normalized to LDLR expression.
Human HepG2 hepatocytes (American Type Culture Collection, Manassas, Va.) and murine RAW 264.7 cells (Mouse leukaemic monocyte macrophage cell line) were cultured in DMEM containing 10% fetal bovine serum (v/v). AML12 mouse hepatoma cells were cultured in a 1:1 (v/v) mixture of DMEM and Ham's F12 medium supplemented with insulin (5 μg ml-1), transferrin (5 μg ml-1), selenium (5 ng ml-1), dexamethasone (40 ng ml-1), and 10% fetal bovine serum (v/v). Where indicated, AML12 cells were exposed to 10 μM SRT3025 in 1% DMSO (v/v). The cells were maintained in a humidified atmosphere with 5% CO2 at 37° C.
Substrate protein, PCSK9 was incubated with 2 μg of recombinant pCAF and 50 μM acetyl-CoA in 20 μL of acetylation buffer (250 mM Tris-HCl [pH9.0], 20 mM MgCl2, 250 mM NaCl, 2.5 mM DTT). Reaction mixtures were incubated at 37° C. for 1 hour. Reaction was stopped by freezing. […] The reactions were analyzed by western blotting using anti-PCSK9 antibody (Abcam) to verify loading and anti-acetyl lysine (Cell signalling) to verify acetylation.

SIRT1 [2] = biological target: T2, SIRT1 (Homo sapiens, UniProt Q96EB6); assay: Fluorogenic peptide deacetylation assay; assay type: biochemical; conditions: increasing concentrations of SRT1720 (1 μM, 10 μM, 100 μM, 1 mM), 1 μg SIRT1, acetyl-Lys421 PCSK9-AMC peptide, compared to negative and positive controls (FIG. 4)
T2 sequence (Q96EB6 1-747): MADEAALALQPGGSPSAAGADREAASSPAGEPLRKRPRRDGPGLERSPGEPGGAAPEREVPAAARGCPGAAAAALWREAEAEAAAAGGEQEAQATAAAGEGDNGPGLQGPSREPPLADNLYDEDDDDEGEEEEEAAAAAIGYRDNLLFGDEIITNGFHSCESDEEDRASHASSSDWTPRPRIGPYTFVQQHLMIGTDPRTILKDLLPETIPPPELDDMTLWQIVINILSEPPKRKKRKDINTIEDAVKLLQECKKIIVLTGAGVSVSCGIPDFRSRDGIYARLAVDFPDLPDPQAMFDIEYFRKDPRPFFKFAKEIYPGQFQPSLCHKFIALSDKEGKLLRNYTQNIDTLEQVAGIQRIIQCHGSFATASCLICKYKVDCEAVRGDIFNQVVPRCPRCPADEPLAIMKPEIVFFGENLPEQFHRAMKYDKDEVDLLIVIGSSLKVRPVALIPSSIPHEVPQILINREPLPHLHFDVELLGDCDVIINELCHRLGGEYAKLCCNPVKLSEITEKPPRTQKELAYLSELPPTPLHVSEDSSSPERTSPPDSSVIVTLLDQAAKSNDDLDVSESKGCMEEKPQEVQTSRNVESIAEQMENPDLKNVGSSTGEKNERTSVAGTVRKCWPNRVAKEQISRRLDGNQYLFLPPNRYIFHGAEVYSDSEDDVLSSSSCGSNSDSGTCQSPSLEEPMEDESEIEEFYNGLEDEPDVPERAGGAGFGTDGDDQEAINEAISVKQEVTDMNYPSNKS
Protocol: To analyse the deacetylation activity of SIRT1 on PCSK9, an acetylated PCSK9 peptide was designed with acetylated lysine 421 (Lys421)-tagged to an AMC fluorophore. The acetyl-PCSK9-AMC peptide was dissolved in DMSO and incubated with 1 μg SIRT1 with 1 μM, 10 μM, 100 μM and 1 mM SIRT1 activator SRT1720 in the deacetylation assay buffer containing 50 mM Tris-HCl [pH8.0], 1 mM MgCl2, 125 mM NaCl, 2.5 mM potassium chloride and 500 μM NAD+. Reactions were allowed to proceed for an incubation period of 1 hr at 37° C. Prior to quenching the reaction, 2 mM nicotinamide was added to 1× developing buffer (BML-KI176-1250, Enzo Lifesciences) in the deacetylation assay buffer (50 mM Tris-HCl [pH8.0], 1 mM MgCl2, 125 mM NaCl, 2.5 mM potassium chloride). At each time point, 50 μL of the reaction was removed and mixed with 50 μL of the developer solution. The quenched samples were kept at 37° C. for 45 min prior to fluorescence reading. The release of the fluorescent AMC was measured using a Tecan M200 PRO fluorometric plate reader with an excitation 360 nm and detection of emitted light in the range of […]. All reactions were normalized to control reactions in the absence of β-NAD (Ffinal=F+NAD−F-NAD).

Compound: COCCCc1sc(-c2ccccc2)nc1C(=O)Nc1ccccc1-c1nc2cc(CN3CCCC3)cnc2s1 [SRT3025]
LDL-cholesterol (SIRT1 [1]): reducing LDL-cholesterol | PCSK9 secretion (SIRT1 [1]): reduction in PCSK9 secretion | atherosclerosis (SIRT1 [1]): protects against atherosclerosis

Compound: acetyl-PCSK9: Recombinant PCSK9 pretreated with pCAF and acetyl-CoA
activity of PCSK9 (LDLR, PCSK9 expression normalized to b-actin) (RAW 264.7 macrophages): more active

fluorescence caused by deacetylation of fluorogenic PCSK9 peptide (SIRT1 [2]): increase in fluorescence
Compound: O=C(Nc1ccccc1-c1cn2c(CN3CCNCC3)csc2n1)c1cnc2ccccc2n1 [SRT1720]
